# Data reported in US5891890A, “Benzamide derivatives, anti-ulcer drug, and antibacterial drug” (Shiseido Co., Ltd., priority 1997, dated 1999).
# Tests used:
# [1] = MTT: Cell Damaging and Protecting Effect Test; type: cell-based, male Japanese White rabbit; conditions: rabbit, gastric corpus mucosa cells, final concentration 10^-4 M, 37° C., smaller value is better, read-out: MTT: cell damaging rate
# From the text: MTT: Cell Damaging and Protecting Effect Test
# It is confirmed that there is no toxicity in cell level. Those having a toxicity in cell level are inappropriate as an anti-ulcer drug.
# A male Japanese White rabbit (2.5 to 3 kg) was anesthetized to death by Nembutal™ and, immediately thereafter, its stomach was removed. The greater curvature of the stomach was incised so as to remove the stomach contents therefrom. After the mucosal surface was washed with HBSS (Hanks' Balanced Salt Solution), the stomach in ice-cooled HBSS was transferred to a laboratory. […]
# The sample compound was dissolved in DMSO so as to attain a concentration of 10^-2 M and then diluted with HBSS containing 2% of Ultrocer G™ so as to attain a final concentration of 10^-4 M. To each group, which 8 wells were used for, 10 μl of MTT reagent was added immediately after 100 μl of the medium in each well was exchanged for same volume of the resulting solution of the sample compound. […] Then, the absorbance (OD: 570 to 630) was measured by a microplate reader. […]
# The cell damaging or cell protecting effect of the sample compound at the final concentration of 10^-4 M was expressed as cell damaging rate (%) as follows:
# cell damaging rate (%)=(1-(absorbance in sample group/absorbance in control […]
# [2] = system: stress ulcer formation; test: WIS: Restraint and Water Immersion Stress-Induced Ulcer Inhibition Test; type: in vivo, male Crj:SD or Slc:SD rats; conditions: 100 mg/kg oral, 10 min before 7 h restraint and water immersion (21° C.), SD rats
# Protocol: WIS: Restraint and Water Immersion Stress-Induced Ulcer Inhibition Test
# The degree of inhibition of the stress ulcer formation is tested.
# Male Crj:SD or Slc:SD rats (6 to 7-week-old) were fasted overnight, but allowed free access to water. Each group has 5 to 8 of these rats. The sample compound was dissolved or suspended in an aqueous solution of 0.3% sodium carboxymethylcellulose or 0.05% Tween 80 and then was orally administered (100 mg/10 ml/kg). To a control group, the vehicle was administered. 10 minutes later, the rats were placed in a stress cage and immersed to the level of xipfoid process in a water bath (21° C.) for 7 hours. At the end of the stress, the rats were sacrificed by inhalation of ether or carbon dioxide. Then, the stomach of each was removed, inflated by injecting 10 ml of 5% formalin neutral buffer solution, and immersed in 1% formalin neutral buffer solution for 30 minutes or more to be fixed. The stomach was incised along the greater curvature and then the length of each erosion in the glandular portion was determined under dissecting microscope. The sum of the length of erosions per stomach was defined as ulcer index (UI).
# The effect obtained when 100 mg/kg of the sample compound had been administered was expressed as ulcer formation inhibitory rate (%) as follows:
# ulcer formation inhibitory rate (%)=(1-(UI in sample group/UI in control
# [3] = system: isolated gastric fundic gland (histamine-stimulated acid secretion); test: CAP: Acid Secretion Inhibition Test In Vitro ([14C]-aminopyrine uptake); type: cell-based, male Japanese White rabbit; conditions: Oryctolagus cuniculus, 40 min, final concentration 10^-5 M, histamine 10^-5 M, 37° C., read-out: CAP: acid secretion inhibitory rate
# Protocol: CAP: Acid Secretion Inhibition Test In Vitro
# The acid secretion inhibitory activity in a cell level is studied. It can also be used for studying the mechanism of the effect. […]
# ii-a) Preparation of isolated gastric fundus gland suspension
# First, an isolated gastric fundic gland sample was prepared. Namely, a male Japanese White rabbit (2.5 to 3 kg) was anesthetized to death with Nembutal™ and then the abdomen was incised. Immediately thereafter, the stomach was removed and, after its pyloric and cardiac antrum were severed, incised along its greater curvature into two sheets. […]
# Into 70 ml of the nutrient solution containing 1 mg/ml of collagenase, minced mucosal pieces were dispersed and intensely stirred in a conical flask with a stirrer at 37° C. for 40 to 60 minutes. During this period, 100% O2 was sprayed on the nutrient solution surface and the pH was appropriately measured such that it was immediately adjusted to pH 7.4, when the value was therebelow, with a base. […] The number of cells was counted under microscope and adjusted to 1.6×10^6 cells/ml. […]
# Then, [^14 C]-aminopyrine uptake test was performed. […] The gland pellet was completely dried as the tube with its lid being opened was kept for one night in a drying oven at 80° C. and then the lid was closed and the weight was determined at room temperature. […]
Compound,"cytotoxicity at 4 h, 100 µM [1] [%]",WIS: ulcer formation inhibitory rate [2] [%],inhibition at 10 µM [3] [%]
CC(C)=CCC/C(C)=C/COc1ccc(C(=O)NCCCOc2cccc(CN3CCCCC3)c2)cc1 [Example 2],49,62,102
CC(C)Cc1cc(C(=O)NCCCOc2cccc(CN3CCCCC3)c2)ccc1OCc1ccc(F)cc1 [Example 1],-3,55,104
